In experiment [1] the test system is detrusor muscle (isolated urinary bladder strips). In words: Relaxation of rhythmic contraction induced by 15 mmol/l KCl in isolated urinary bladder strips (Test Example 2). On the set-up: species or system guinea pig (male albino Hartley). To be noted: Cavia porcellus; KCl 15 mmol/l; cumulative, contact time 15-30 minutes; 50% relaxant of maximum response. An excerpt:
(§1) The activity of Compounds (I) as therapeutic agents for pollakiuria and urinary incontinence is described below. In the following Test Examples 1 and 2, IC50 value was defined as the concentration at which a test compound produces 50% relaxant of maximum response of detrusor muscle.
(§2) Male albino Hartley guinea pigs (350-550 g) were used as test animals. Each animal was exsanguinated to death under sodium pentobarbital anesthesia. The lower abdominal cavity was opened and its bladder was positioned. The connective tissue and the fat tissue around the bladder were removed, and the bladder was washed. After bilateral pelvic nerves on the surface of the abdominal side of the bladder were dissected, the bladder was taken out on the entrance of ureter. The bladder was washed with a Krebs-Henseleit buffer [composition (mM): NaCl 118, KCl 4.7, MgSO4 1.2, KH2 PO4 1.2, CaCl2 2.5, NaHCO3 25, and D-glucose 11.1], and then put on a gauze patch soaked in the buffer in a Petri dish. The dome and the trigone of the bladder were cut away. The back of the bladder was cut vertically in the middle with scissors, and the bladder was put flat on the gauze patch. The mucosa of the bladder was removed. The back of the bladder was cut vertically to get 6 strips which are ca. 2.0 mm wide and ca. 10 mm long.
(§3) Each strip was tied at one end to plastic rod and placed in a 20 ml organ bath containing a Krebs-Henseleit solution which was maintained at 37° C. and bubbled vigorously with a gas mixture of 5% CO2 and 95% O2. The pH of the solution was adjusted to about 7.4. The other end of the strip was tied via silk thread to a force displacement transducer (NIHON KODEN TB-611T). The transducer was connected to a polygraph (NIHON KODEN AP-621G), and the changes in tension were recorded on a recorder (YOKOGAWA type 3066). The polygraph was graduated by 0.5 g/cm.
Isolated urinary bladder strips were prepared in the same manner as in Test Example 1, and the tension of the preparation was measured. After the tension of the tissue was adjusted to be a steady state at 1 g, 15 mmol/l KCl was applied. After the rhythmic contraction was confirmed to appear by KCl, the tissue was washed. Then, 15 mmol/l KCl was applied again. After the rhythmic contraction induced by KCl became constant, a test compound was applied by the cumulative method (half-logarithmic increment). The contact time at each concentration was 15-30 minutes. The activity of the compound was expressed as the maximum relaxation rate (%) against the tension induced by the agonist.

The test system is the same in experiment [2]. Put plainly: Relaxation of contraction induced by 50 mmol/l KCl in isolated urinary bladder strips (Test Example 1). To be noted: Cavia porcellus, 0.5 h; KCl 50 mmol/l; cumulative, contact time 30 minutes; 50% relaxant of maximum response. On the set-up: species or system guinea pig (male albino Hartley).
Description: as §1, §2, §3
After the tissue was incubated in the buffer for 15 minutes without preloading, tension was added thereto for about one hour. The preloading tension added was 1.5 g and it was relaxed to about 1 g. The strips were allowed to equilibrate until their contractions became constant and tension was adjusted to 1 g. After this equilibrium period, 50 mmol/l KCl (the whole content in the bath) was added, and the tissue was washed 10 minutes later. KCl was added to the tissue at intervals of 30 minutes, followed by washing 10 minutes later, and KCl was applied repeatedly until the developed tension induced by KCl becomes constant. When the tissue was confirmed to contract constantly by the application of KCl and relax to the steady state after washing, 50 mmol/l KCl was applied again. After the tissue reached the steady state and the base line was obtained, a test compound was applied by the cumulative method (half-logarithmic increment). The contact time at each concentration was 30 minutes. The activity of the compound was expressed as the maximum relaxation rate (%) against the tension induced by the agonist.

The subject of experiment [3] is bladder. In words: animal or person. To be noted: Rattus norvegicus, po, read-out: Contraction interval.
Description: Male SD strain rats (200-300 g) were used as test animals. Each animal was anesthetized by intraperitoneally administering 50 mg/kg Nembutal. The hair on the abdomen, the thigh, and the back of the neck was shaved, followed by disinfection with 70% ethanol. The left femoral artery of the rat was exposed by incising the thigh for the insertion of a catheter into the femoral artery. A catheter filled with physiological saline containing heparin (1000 units/ml) was introduced approximately 2-3 cm into the artery so that its tip resided in the abdominal artery. The distal end of the catheter was exteriorized at the nape of the neck, sealed, and fixed on the skin tightly. A bladder catheter was implanted according to the method of Yaksh, et al., [Am. J. Physiol., vol.251, R1177-1185 (1986)]. The bladder was exposed through a midline abdominal incision. The bladder dome was given a small incision to make a small hole. A catheter filled with physiological saline was placed into the bladder and secured with a silk ligature. The other end of the catheter was exteriorized at the nape of the neck after being passed under the skin using a trocar. The exposed end of the catheter was sealed and fixed on the skin tightly. The abdominal muscles and skin were sutured, and the test animal was recovered from anesthesia.
The rat was weighed 24-48 hours after the operation. Each rat was placed in a Bollman cage (NATSUME SEISAKUSHO), and the test was done under partial restraint. The arterial catheter was connected to a pressure transducer (NIHON KODEN DX-300) used for the measurement of blood pressure. The bladder catheter was connected to a sylinge pump for physiological saline infusion and to a pressure transducer with PE50 tubing and a three-way stop-cock. Intravesical physiological saline infusion (0.05 ml/minute) was started and continued during the test. The changes of blood pressure, heart rate, and intravesical pressure were recorded with a polygraph (NIHON KODEN). The test animal was allowed to equilibration (for ca. 60-120 minutes) until its micturition pattern became constant. At this point, a basal value of each test parameter was recorded, and the rat was compulsorily given a test compound (in 0.3% carboxymethyl cellulose-physiological saline) at a dose of 1 mg/kg (body weight) by oral administration. […] As a control compound, cromakalim was used. The contraction interval, the systemic blood pressure, and the heart rate were measured for 5 hours after the administration of the compound at one-hour intervals and were expressed as the relative values based on the pre-administration values which were regarded as 100.

As usually defined, the IC50 is the concentration that inhibits the measured activity by half. Low values mean greater potency in that assay, high ones weaker potency in that assay.

Like-named read-outs stand apart in the source and are kept apart here. A value given as a limit tells only on which side of the number the result lay.

Regarding `O=C1c2ccc(NC(=O)C(F)(F)F)cc2S(=O)(=O)Cc2ccsc21` [Compound 3-5, 5,5-Dioxo-7-trifluoroacetylamino-4,10-dihydrothieno[3,2-c][1]benzothiepin-10-one], the half-maximal inhibitory concentration (IC50) in experiment [1] is 8.3 µM; in experiment [2], 8.7 µM. Further, the response vs control in vivo at 1 mg/kg in experiment [3] (1 h) turned out to be 131 ± 12%; in experiment [3] (2 h), 152 ± 4%; in experiment [3] (3 h) it was 145 ± 18%; in experiment [3] (4 h), 157 ± 13%; in experiment [3] (5 h), 158 ± 4%.

With `CC(O)(C(=O)Nc1ccc2c(c1)S(=O)(=O)Cc1ccsc1C2=O)C(F)(F)F` (centres unmarked) [Compound 1-2, 5,5-Dioxo-7-(3,3,3-trifluoro-2-hydroxy-2-methylpropanoylamino)-4,10-dihydrothieno[3,2-c][1]benzothiepin-10-one], the IC50 in experiment [1] was 5.1 µM; in experiment [2], greater than 10 µM. For the same molecule, the response vs control in vivo at 1 mg/kg in experiment [3] (1 h) was 116 ± 8%; in experiment [3] (2 h) it was 136 ± 5%; in experiment [3] (3 h), 149 ± 9%; in experiment [3] (4 h), 143 ± 5%; in experiment [3] (5 h) it was 139 ± 6%.

As for `CC(O)(C(=O)Nc1cccc2c1C(=O)c1sccc1CS2(=O)=O)C(F)(F)F` (centres unmarked) [Compound 1-1, 5,5-Dioxo-9-(3,3,3-trifluoro-2-hydroxy-2-methylpropanoylamino)-4,10-dihydrothieno[3,2-c][1]benzothiepin-10-one], the IC50 in experiment [1] was 2.6 µM; in experiment [2], greater than 10 µM. The response vs control in vivo at 1 mg/kg in experiment [3] (1 h) is 138 ± 15%; in experiment [3] (2 h), 166 ± 16%; in experiment [3] (3 h), 170 ± 6%; in experiment [3] (4 h), 181 ± 16%; in experiment [3] (5 h), 203 ± 21%. Moreover, the response vs control in vivo at 10 mg/kg in experiment [3] (1 h) came to 124 ± 4%; in experiment [3] (2 h) it was 139 ± 9%; in experiment [3] (3 h) it was 154 ± 14%; in experiment [3] (4 h) it was 176 ± 13%; in experiment [3] (5 h), 190 ± 15%.

For `C[C@@](O)(C(=O)Nc1cccc2c1C(=O)c1sccc1CS2(=O)=O)C(F)(F)F` [Compound 1-26, (R)-(-)-5,5-Dioxo-9-(3,3,3-trifluoro-2-hydroxy-2-methylpropanoylamino)-4,10-dihydrothieno [3,2-c][1]benzothipin-10-one], the IC50 in experiment [1] amounted to 6.6 µM; in experiment [2], 6.3 µM. For the same molecule, the response vs control in vivo at 0.1 mg/kg in experiment [3] (1 h) came out at 118 ± 8%; in experiment [3] (2 h), 137 ± 7%; in experiment [3] (3 h) it was 145 ± 7%; in experiment [3] (4 h), 152 ± 8%; in experiment [3] (5 h), 168 ± 7%.

`CC(O)(C(=O)Nc1cccc2c1C(=O)c1ccccc1CS2(=O)=O)C(F)(F)F` (centres unmarked) [Compound 1-3, 5,5-Dioxo-1-(3,3,3-trifluoro-2-hydroxy-2-methylpropanoylamino)-6,11-dihydrodibenzo[b,e]thiepin-11-one]: the IC50 in experiment [1] was 6.3 µM; in experiment [2], greater than 10 µM. In addition, the response vs control in vivo at 1 mg/kg turned out to be 123 ± 15% in experiment [3] (1 h); 135 ± 11% in experiment [3] (2 h); 144 ± 10% in experiment [3] (3 h); 160 ± 19% in experiment [3] (4 h); 160 ± 16% in experiment [3] (5 h).

In the case of `CC(O)(C(=O)Nc1ccc2c(c1)S(=O)(=O)Cc1ccccc1C2=O)C(F)(F)F` (centres unmarked) [Compound 1-4, 5,5-Dioxo-3-(3,3,3-trifluoro-2-hydroxy-2-methylpropanoylamino)-6,11-dihydrodibenzo[b,e]thiepin-11-one], the IC50 in experiment [1] was determined as 3.2 µM; in experiment [2] it was 4.5 µM.

`C[C@](O)(C(=O)Nc1cccc2c1C(=O)c1sccc1CS2(=O)=O)C(F)(F)F` [Compound 1-25, (S)-(+)-5,5-Dioxo-9-(3,3,3-trifluoro-2-hydroxy-2-methylpropanoylamino)-4,10-dihydrothieno[3,2-c][1]benzothiepin-10-one]: the IC50 in experiment [1] worked out at 2.6 µM; in experiment [2], 10.5 µM. In addition, the response vs control in vivo at 0.1 mg/kg in experiment [3] (1 h) came out at 108 ± 9%; in experiment [3] (2 h) it was 140 ± 9%; in experiment [3] (3 h) it was 140 ± 12%; in experiment [3] (4 h), 148 ± 13%; in experiment [3] (5 h), 163 ± 17%. For the same molecule, the response vs control in vivo at 3 mg/kg in experiment [3] (1 h) came out at 129 ± 8%; in experiment [3] (2 h), 125 ± 14%; in experiment [3] (3 h) it was 143 ± 22%; in experiment [3] (4 h), 165 ± 22%; in experiment [3] (5 h) it was 161 ± 13%. Moreover, the response vs control in vivo at 10 mg/kg in experiment [3] (1 h) was found to be 133 ± 15%; in experiment [3] (2 h) it was 128 ± 10%; in experiment [3] (3 h) it was 149 ± 19%; in experiment [3] (4 h), 180 ± 22%; in experiment [3] (5 h), 183 ± 14%.

The values are drawn from patent publication US6211227A, “Tricyclic compounds” (Kyowa Hakko Kogyo Co., Ltd., priority 1997, dated 2001).
